Measured values published in article PMC11855827, “High-Throughput Screening of Five Compound Libraries for Anthelmintic Activity and Toxicity Leads to the Discovery of Two Flavonoid Compounds” (International Journal of Molecular Sciences, 2025).

System: C. elegans
Settings: Table S2, C. elegans SS assay, 110 μM, averages of 4 data points

Row | SMILES | Percentage of motility inhibition 0 h | Percentage of motility inhibition 24 h
1 | CC1(C)CCC[C@]2(C)[C@@H]1CC[C@@]13C[C@H](CC[C@H]12)[C@@](O)(CO)C3 [Kauran-16,17-diol] | 0% | 22%
2 | C[C@@H]1CC[C@@]2(NC1)O[C@H]1C[C@H]3[C@@H]4CC=C5C[C@@H](O[C@@H]6O[C@H](CO)[C@@H](O[C@@H]7O[C@@H](C)[C@H](O)[C@@H](O)[C@H]7O)[C@H](O)[C@H]6O)CC[C@]5(C)[C@H]4CC[C@]3(C)[C@H]1[C@@H]2C [Khasianine] | 19% | 10%
3 | OC[C@H]1O[C@@H](Oc2cc3c(O)cc(O)cc3[o+]c2-c2ccc(O)c(O)c2)[C@H](O)[C@@H](O)[C@@H]1O.[Cl-] [Kuromanin (chloride)] | 34% | 5%
4 | C=C(C)[C@H](CC=C(C)C)Cc1c(O)cc(OC)c2c1O[C@H](c1ccc(O)cc1O)[C@@H](O)C2=O [Kushenol I] | 0% | 8%
5 | CC(C)=CCc1c(O)ccc(C(=O)[C@@H]2[C@@H](c3c(O)cc(O)c4c(=O)c(CC=C(C)C)c(-c5ccc(O)cc5O)oc34)C=C(C)C[C@H]2c2ccc(O)cc2O)c1O [Kuwanon H] | 11% | 23%
6 | O=C(O)c1cc(=O)c2ccccc2[nH]1 [Kynurenic acid] | 17% | 0%
7 | N=C(N)NCCC[C@H](N)C(=O)O.N[C@@H](CCC(=O)O)C(=O)O [L-Arginine (L-glutamate)] | 22% | 0%
8 | Cl.N=C(N)NCCC[C@H](N)C(=O)O [L-Arginine (hydrochloride)] | 20% | 17%
9 | O=C1O[C@H]([C@@H](O)CO)C([O-])=C1O.[Na+] [L-Ascorbic acid (sodium salt)] | 6% | 3%
10 | NC(=O)C[C@H](N)C(=O)O [L-Asparagine] | 27% | 25%
11 | C[N+](C)(C)C[C@H](O)CC(=O)[O-] [L-Carnitine] | 7% | 1%
12 | N[C@@H](CCC(=O)O)C(=O)[O-].[Na+] [L-Glutamic acid (monosodium salt)] | 1% | 0%
13 | CN1[C@@H]2CC[C@H]1CC(OC(=O)[C@H](CO)c1ccccc1)C2.CN1[C@@H]2CC[C@H]1CC(OC(=O)[C@H](CO)c1ccccc1)C2.O=S(=O)(O)O (stereo partly drawn) [L-Hyoscyamine (sulfate)] | 1% | 6%
14 | CN1[C@@H]2CC[C@H]1C[C@@H](OC(=O)[C@H](CO)c1ccccc1)C2 [L-Hyoscyamine] | 55% | 28%
15 | NCCCC[C@H](N)C(=O)O.O [L-Lysine hydrate] | 8% | 2%
16 | Cl.NCCCC[C@H](N)C(=O)O [L-Lysine hydrochloride] | 19% | 0%
17 | NCCC[C@H](N)C(=O)O [L-Ornithine] | 2% | 4%
18 | C=C(C)[C@@H]1CC=C(C=O)CC1 [L-Perillaldehyde] | 22% | 25%
